# *1 amine or outer side, *2 acyl side, *3 side chain or, on linkers, in order; H or OH if unused. Where no end group is shown, it is not given here. [ ]: non-standard residue; d: D form. Pen(Acm) = L-S-acetamidomethyl-penicillamine, CC(=O)NCSC(C)(C)[C@H](N[*:1])C(=O)[*:2]; Phe(4-CN) = N#Cc1ccc(C[C@H](N)C(=O)O)cc1; Met(O) = CS(=O)CC[C@H](N)C(=O)O; 2Thi = N[C@@H](Cc1cccs1)C(=O)O; AllylGly = C=CC[C@H](N)C(=O)O; Phg = N[C@H](C(=O)O)c1ccccc1; hSer = N[C@@H](CCO)C(=O)O
# Assays:
# CaCo2 monolayers [1] = test: Trans Epithelial Electric Resistance (TEER) across cell monolayer; type: cell-based; parameters: key to Reduced TEER: + indicates an enhancement of the permeability of the tight junctions were observed; − indicates no enhancement of permeability was observed; settings: Caco-2 monolayer
# From the text: (§1) Agonists of tight junctions can be identified by their ability to enhance the flux of compounds (e.g. ions, Lucifer Yellow) through a cell monolayer that comprises tight junctions; or by their ability to reduce TEER across a cell monolayer that comprises tight junctions. Treatment of CaCo2 monolayers with peptide FCIGRL (SEQ ID NO: 1) led to a 51-fold enhancement of Lucifer Yellow permeability through CaCo2 monolayers compared to vehicle alone. Treatment of CaCo2 monolayers with peptide FCIGRL led to a 16-fold decrease in TEER across CaCo2 monolayers compared to vehicle alone.
# (§2) Determination of TEER and Lucifer Yellow Flux
# (§3) Prepare Modified Hank's Balanced Salt Solution (MHBSS) by obtaining 1 L bottle of HBSS removing 10 ml of HBSS and replacing it with 10 ml HEPES buffer pH 7.0. Adjust pH to 7.4±0.1 using concentrated NaOH (10N).
# (§4) Remove Caco-2 cells from incubator, grown on 12-well, […], polycarbonate Transwell® filters (Corning) and record passage#, date cells seeded and age in days.
# (§5) Aspirate cell culture medium from both the apical (AP) and basolateral (BL) compartments, replacing with 0.5 ml and 1.5 ml of MHBSS, respectively. Incubate cells at 37° C. for 30 minutes.
# Using the MilliCell®-ERS instrument (Millipore), measure and record the transepithelial electrical resistance (TEER) across each filter and record.
# (§6) Aspirate solution from the apical compartment of each filter (n=3 per condition) and replace with 0.5 ml of control and test solutions containing Lucifer Yellow and test compound if appropriate.
# (§7) Place all plates into incubator set at 37° C. (±0.2), 50 RPM (±5) for a total of 180 minutes.
# At t=30, 60, 120 and 180 minutes, measure and record the transepithelial electrical resistance (TEER) across each filter using the MilliCell-ERS instrument.
# (§8) Cells: Caco-2 cells passage 40-60 grown on Transwell® plates for 21-28 days
# (§9) Culture Medium: DMEM supplemented with 10% fetal bovine serum, 1% NEAA, 1% Penn/Strep
# (§10) Buffers: Hank's Balanced Salt Solution (HBSS) without calcium and magnesium
# (§11) Flasks: 100×20 mm Tissue culture dish Falcon.
# (§12) Plates: 12 well polycarbonate Transwell® filters; 0.3 uM pore size
# CaCo2 monolayers [2] = test: Epithelial flux of Lucifer Yellow through cell monolayer; type: cell-based; parameters: key to Enhanced LY permeability: + indicates an enhancement of the permeability of the tight junctions were observed; − indicates no enhancement of permeability was observed; settings: Lucifer Yellow flux, Caco-2 monolayer
# From the text: as §1, §2, §3, §4, §5, §6, §7
# At t=60, 120 and 180 minutes remove 100 μl from each basolateral compartment and place it in a 96-well plate for Lucifer Yellow analysis, replace with 100 μl of MHBSS.
# Make a Lucifer Yellow standard curve with the following dilutions (7500 μM, 3750 μM, 750 μM, 375 μM, 75 μM, 37.5 μM, 7.5 μM, 3.75 μM, 0.75 μM) and pipette […] of each into a 96-well plate except for the first three standards mentioned above which require a 1:10 dilutions prior to transferring to the 96-well plate.
# Harvest the remaining start solutions and what is left in each apical compartment into 1.5 ml vials. Freeze at −20° C. for future analysis.
# Analyze each 96-well plate in a Tecan Spectra Fluor Plus using Magellan at 485 and 535 nm.
# as §8, §9, §10, §11, §12
Substance,Reduced TEER (CaCo2 monolayers [1]),Enhanced LY permeability (CaCo2 monolayers [2])
140 (H-F[2Thi]IGRL-OH; SMILES CC[C@H](C)[C@H](NC(=O)[C@H](Cc1cccs1)NC(=O)[C@@H](N)Cc1ccccc1)C(=O)NCC(=O)N[C@@H](CCCNC(=N)N)C(=O)N[C@@H](CC(C)C)C(=O)O) [compound 140],−,−
63 (H-FCIGRF-OH; not fully specified) [compound 63],+,+
183 (F[AllylGly]IGRL-OH; N-terminus assumed; SMILES C=CC[C@H](NC(=O)[C@@H](N)Cc1ccccc1)C(=O)N[C@H](C(=O)NCC(=O)N[C@@H](CCCNC(=N)N)C(=O)N[C@@H](CC(C)C)C(=O)O)[C@@H](C)CC) [compound 183],+,+
"159 (F[L‑(R,S)‑3,4‑cis‑methanoproline]IGRL; not fully specified; also: peptide conjugate) [compound 159]",+,−
74 (YCIGRL; not fully specified; printed as Tyr-Cys-Ile-Gly-Arg-Leu) [compound 74],+,+
36 ([dL]RGICF; not fully specified; printed as D-Leu-Arg-Gly-Ile-Cys-Phe) [compound 36],−,−
"143 (H-F[Met(O)]IGRL-OH; not fully specified; also: peptide conjugate, Xaa: 'may be' L-methionine-sulfoxide) [compound 143]",−,−
210 (F[AllylGly]GGRL-NH2; N-terminus assumed; SMILES C=CC[C@H](NC(=O)[C@@H](N)Cc1ccccc1)C(=O)NCC(=O)NCC(=O)N[C@@H](CCCNC(=N)N)C(=O)N[C@@H](CC(C)C)C(N)=O) [compound 210],+,+
184 (F[AllylGly]IGR-NH2; N-terminus assumed; SMILES C=CC[C@H](NC(=O)[C@@H](N)Cc1ccccc1)C(=O)N[C@H](C(=O)NCC(=O)N[C@@H](CCCNC(=N)N)C(N)=O)[C@@H](C)CC) [compound 184],−,−
118 (FFLIGRL-NH2; also: peptide conjugate) [compound 118],+,+
"154 (F[Phg]IGRL-OH; not fully specified; printed as Phe-Phg-Ile-Gly-Arg-Leu-OH; also: peptide conjugate, Xaa: 'may be' L-phenylglycine) [compound 154]",+,+
31 ([dF][dC][dI]GR[dL]; not fully specified) [compound 31],−,−
189 (S[AllylGly]IGRL-NH2; N-terminus assumed; SMILES C=CC[C@H](NC(=O)[C@@H](N)CO)C(=O)N[C@H](C(=O)NCC(=O)N[C@@H](CCCNC(=N)N)C(=O)N[C@@H](CC(C)C)C(N)=O)[C@@H](C)CC) [compound 189],−,−
1 (FCIGRL; not fully specified) [compound 1],+,+
208 (F[AllylGly]FGRL-NH2; N-terminus assumed; SMILES C=CC[C@H](NC(=O)[C@@H](N)Cc1ccccc1)C(=O)N[C@@H](Cc1ccccc1)C(=O)NCC(=O)N[C@@H](CCCNC(=N)N)C(=O)N[C@@H](CC(C)C)C(N)=O) [compound 208],+,+
211 (F[AllylGly]AGRL-NH2; N-terminus assumed; SMILES C=CC[C@H](NC(=O)[C@@H](N)Cc1ccccc1)C(=O)N[C@@H](C)C(=O)NCC(=O)N[C@@H](CCCNC(=N)N)C(=O)N[C@@H](CC(C)C)C(N)=O) [compound 211],+,+
224 (F[AllylGly]IPRL-NH2; N-terminus assumed; SMILES C=CC[C@H](NC(=O)[C@@H](N)Cc1ccccc1)C(=O)N[C@H](C(=O)N1CCC[C@H]1C(=O)N[C@@H](CCCNC(=N)N)C(=O)N[C@@H](CC(C)C)C(N)=O)[C@@H](C)CC) [compound 224],−,−
170 (F[hSer][dI]GR-NH2; also: peptide conjugate) [compound 170],−,−
155 (F[dV]IGRL-OH; also: peptide conjugate) [compound 155],−,−

Substance,Reduced TEER (CaCo2 monolayers [1]),Enhanced LY permeability (CaCo2 monolayers [2])
30 ([dF][dC][dI]G[dR]L; not fully specified) [compound 30],+,+
114 (FTIGRL; also: peptide conjugate) [compound 114],+,+
116 (FMIGRL; also: peptide conjugate) [compound 116],−,−
223 (F[AllylGly]IARL-NH2; N-terminus assumed; SMILES C=CC[C@H](NC(=O)[C@@H](N)Cc1ccccc1)C(=O)N[C@H](C(=O)N[C@@H](C)C(=O)N[C@@H](CCCNC(=N)N)C(=O)N[C@@H](CC(C)C)C(N)=O)[C@@H](C)CC) [compound 223],+,+
119 (FFIGRL; also: peptide conjugate) [compound 119],+,−
87 (Ac-FLIGRL-NH2; not fully specified) [compound 87],+,+
12 ([dF]CIGRL; also: peptide conjugate) [compound 12],+,+
130 (FEIGRL; also: peptide conjugate) [compound 130],−,−
139 (FLIGR-NH2; also: peptide conjugate) [compound 139],−,−
138 (LRGILF-NH2; also: peptide conjugate) [compound 138],+,+
199 (H[AllylGly]IGRL-NH2; N-terminus assumed; SMILES C=CC[C@H](NC(=O)[C@@H](N)Cc1c[nH]cn1)C(=O)N[C@H](C(=O)NCC(=O)N[C@@H](CCCNC(=N)N)C(=O)N[C@@H](CC(C)C)C(N)=O)[C@@H](C)CC) [compound 199],−,−
161 (F[Pen(Acm)]IGRL; also: peptide conjugate) [compound 161],+,+
"173 ([Phe(4-CN)]FIGRL; also: peptide conjugate, Xaa: 'may be' L-4-cyano-phenylalanine) [compound 173]",−,−
195 (D[AllylGly]IGRL-NH2; N-terminus assumed; SMILES C=CC[C@H](NC(=O)[C@@H](N)CC(=O)O)C(=O)N[C@H](C(=O)NCC(=O)N[C@@H](CCCNC(=N)N)C(=O)N[C@@H](CC(C)C)C(N)=O)[C@@H](C)CC) [compound 195],−,−
78 (Ac-ACIGRA; not fully specified; printed as Ac-Ala-Cys-Ile-Gly-Arg-Ala) [compound 78],−,+
"172 (F[hSer][dI]GRL; not fully specified; also: peptide conjugate, Xaa: 'may be' homoserine) [compound 172]",−,−
132 (FNIGRL; also: peptide conjugate) [compound 132],+,−
136 (FIIGRL; also: peptide conjugate) [compound 136],+,+

# — patent US20120027720A1, “PEPTIDE CONJUGATES” (priority 2008, published 2012)
